Among the data in patent publication US10669240B2, “5-substituted indazole-3-carboxamides and preparation and use thereof” (Samumed, LLC, priority 2014, dated 2020) are EC50 values, retold here.

The assay deals with DYRK1A (Homo sapiens (Human), UniProt Q13627). Put plainly: DYRK1A activity Tau assay: pSer396 Tau in SH-SY5Y cells by ELISA / western blot. The class given is cell-based. As to conditions: overnight (16-18 h) exposure.

Description: In another example, in vitro assays for DYRK1A biological activity may be used, e.g. regulation of microtubule-associated protein tau (MAPT/Tau) phosphorylation in neuronal cell line such as the human SH-SY5Y neuroblastoma cell line. Assays for DYRK1a-regulated level of phosphorylation can include monitoring levels of basal pSer396 Tau, which can be measured, for example, by serial dilutions of a candidate inhibitor composition using a ten micromolar top concentration and detected by ELISA or Western Blotting. An exemplary assay for DYRK-1a-regulated phosphorylation uses the SH-SY5Y cells cultured in a 96 well plate format for a period of time sufficient to stabilize microtubules and Tau phosphorylation, usually at least 2 days, then treated with a 1/3 serial dilution of compounds overnight and lysed. The cell lysate is resolved by SDS PAGE, then transferred to nitrocellulose and probed with an antibody specific for pSer396 Tau.
In a further example, the activity of a candidate compound can be measured by ELISA by adding the lysate mentioned above onto total Tau-coated plates and detected with a specific pSer396 antibody.

Compound `O=C(NC1CCCC1)c1n[nH]c2ccc(-c3cncc(N4CCCC4)c3)cc12` [Compound 181, N-Cyclopentyl-5-(5-(pyrrolidin-1-yl)pyridin-3-yl)-1H-indazole-3-carboxamide] had an EC50 of 47 nM.

With `CC(F)(F)CN1CCC(NC(=O)c2n[nH]c3ccc(-c4cncc(Cl)c4)cc23)CC1` [Compound 1302, 5-(5-Chloropyridin-3-yl)-N-(1-(2,2-difluoropropyl)piperidin-4-yl)-1H-indazole-3-carboxamide], the midpoint of the response, the EC50, lay at 31 nM.

In the case of `O=C(NC1CCN(CC(F)F)CC1)c1n[nH]c2ccc(-c3cccc(F)c3F)cc12` [Compound 1161, N-(1-(2,2-Difluoroethyl)piperidin-4-yl)-5-(2,3-difluorophenyl)-1H-indazole-3-carboxamide], the midpoint of the response, the EC50, lay at 134 nM.

`CC(C)(C)CN1CCC(NC(=O)c2n[nH]c3ccc(-c4cncc(F)c4)cc23)CC1` [Compound 1315, 5-(5-Fluoropyridin-3-yl)-N-(1-neopentylpiperidin-4-yl)-1H-indazole-3-carboxamide] registered an EC50 of 870 nM.

Take `CC(C)(C)NC(=O)c1n[nH]c2ccc(-c3cncc(CN4CC(F)(F)C4)c3)cc12` [Compound 1210, N-(tert-Butyl)-5-(5-((3,3-difluoroazetidin-1-yl)methyl)pyridin-3-yl)-1H-indazole-3-carboxamide]: a half-maximal response (EC50) required 128 nM.

On to `O=C(NC1CCCCC1)c1n[nH]c2ccc(-c3cccc(F)c3)cc12` [Compound 12, N-Cyclohexyl-5-(3-fluorophenyl)-1H-indazole-3-carboxamide], for which the EC50 is greater than 10000 nM.

For `O=C(NC1CCOCC1)c1n[nH]c2ccc(-c3cccnc3)cc12` [Compound 2, 5-(Pyridin-3-yl)-N-(tetrahydro-2H-pyran-4-yl)-1H-indazole-3-carboxamide], the response was half-maximal at 31 nM (EC50).

In turn, `CC(C)CN1CCC(NC(=O)c2n[nH]c3ccc(-c4cncc(F)c4)cc23)CC1` [Compound 1306, 5-(5-Fluoropyridin-3-yl)-N-(1-isobutylpiperidin-4-yl)-1H-indazole-3-carboxamide] gave an EC50 of 44 nM.

Compound `O=C(NC1(c2ccccc2)CC1)c1n[nH]c2ccc(-c3cncc(CN4CCCC4)c3)cc12` [Compound 34, N-(1-Phenylcyclopropyl)-5-(5-(pyrrolidin-1-ylmethyl)pyridin-3-yl)-1H-indazole-3-carboxamide] gave an EC50 of 233 nM.

The compound `O=C(Nc1ccc(F)cn1)c1n[nH]c2ccc(-c3cncc(CN4CCCCC4)c3)cc12` [Compound 57, N-(5-Fluoropyridin-2-yl)-5-(5-(piperidin-1-ylmethyl)pyridin-3-yl)-1H-indazole-3-carboxamide] showed an EC50 of 2 nM.

`O=C(NC1Cc2ccccc2C1)c1n[nH]c2ccc(-c3cccnc3)cc12` [Compound 22, N-(2,3-Dihydro-1H-inden-2-yl)-5-(pyridin-3-yl)-1H-indazole-3-carboxamide] came in with a half-maximal effective concentration (EC50) of 52 nM.

With `O=C(Nc1c(F)cncc1F)c1n[nH]c2ccc(-c3cncc(CN4CCCCC4)c3)cc12` [Compound 79, N-(3,5-Difluoropyridin-4-yl)-5-(5-(piperidin-1-ylmethyl)pyridin-3-yl)-1H-indazole-3-carboxamide], the EC50 is 1 nM.

The compound `CC(F)(F)CN1CCC(NC(=O)c2n[nH]c3ccc(-c4cncc(F)c4)cc23)CC1` [Compound 1301, N-(1-(2,2-Difluoropropyl)piperidin-4-yl)-5-(5-fluoropyridin-3-yl)-1H-indazole-3-carboxamide] yielded an EC50 of 23 nM.

As to `CC(C)(C)NC(=O)c1n[nH]c2ccc(-c3cccnc3)cc12` [Compound 1253, N-(tert-Butyl)-5-(pyridin-3-yl)-1H-indazole-3-carboxamide], a half-maximal response (EC50) required 150 nM.

The compound `CC(C)NC(=O)c1n[nH]c2ccc(-c3cccc(F)c3F)cc12` [Compound 140, 5-(2,3-Difluorophenyl)-N-isopropyl-1H-indazole-3-carboxamide] had an EC50 of 576 nM.
